Test [1] relates to Staphylococcus aureus. As to the kind of experiment: Antibacterial activity against methicillin-resistant Staphylococcus aureus infected in rabbit RBC assessed as reduction in alpha-heamolysin by absorbance based analysis. Conditions: Erythrocyte. In kind it is functional, organism-based.
The test system of test [2] is Staphylococcus aureus. The experiment in a line: Antibacterial activity against methicillin-resistant Staphylococcus aureus infected in rabbit RBC assessed as reduction in alpha-heamolysin at 0.5 times of MIC by absorbance based analysis. In kind it is functional, Erythrocyte. The arrangement: scale not given: the % may be the effect or the level left.
Test [3] deals with Staphylococcus aureus. The experiment in a line: Antibacterial activity against methicillin-resistant Staphylococcus aureus infected in rabbit RBC assessed as reduction in alpha-heamolysin at 1 times of MIC by absorbance based analysis. In kind it is functional, Erythrocyte. Also noted: scale not given: the % may be the effect or the level left.
Test [4] has as its system Staphylococcus aureus. The experiment in a line: Antibacterial activity against methicillin-resistant Staphylococcus aureus infected in rabbit RBC assessed as reduction in alpha-heamolysin at 0.25 times of MIC by absorbance based analysis. It is filed as functional, Erythrocyte. Also noted: scale not given: the % may be the effect or the level left.

Consider one compound from ChEMBL document CHEMBL5346923, “Novel pyridinium cationic pleuromutilin analogues overcoming bacterial multidrug resistance” (Eur J Med Chem, 2023).

Consider `C=C[C@]1(C)C[C@@H](OC(=O)CSc2cc[n+](CCCCCCC)cc2)[C@]2(C)[C@H](C)CC[C@]3(CCC(=O)[C@H]32)[C@@H](C)[C@@H]1O.[I-]`, for which the Activity result is “Dose-Dependent Effect” with Staphylococcus aureus [1], 34% with Staphylococcus aureus [2], 93% in the test on Staphylococcus aureus [3] and 25% with Staphylococcus aureus [4].
